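96-well plates; 48 h exposure; 5 concentrations. Endpoints by linear interpolation between flanking doses. Not reached: highest tested concentration assigned. GI50 = concentration required for 50% inhibition of growth. At the TGI there is no net growth.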
How the values were obtained:
Test in all cases: NCI anticancer screen, dose series, 48 h
HOP-92 NSCLC = system: HOP-92 NSCLC
HL-60(TB) leukemia = system: HL-60(TB) leukemia
HCT-15 colon = system: HCT-15 colon
SR leukemia = system: SR leukemia
CAKI-1 renal = system: CAKI-1 renal
BT-549 breast = system: BT-549 breast
MALME-3M melanoma = system: MALME-3M melanoma
SW-620 colon = system: SW-620 colon
SK-OV-3 ovarian = system: SK-OV-3 ovarian
SK-MEL-5 melanoma = system: SK-MEL-5 melanoma
NCI/ADR-RES ovarian = system: NCI/ADR-RES ovarian
HS 578T breast = system: HS 578T breast
NCI-H522 lung = system: NCI-H522 lung
MDA-MB-231 breast = system: MDA-MB-231 breast
RXF 393 renal = system: RXF 393 renal
UACC-62 melanoma = system: UACC-62 melanoma
K-562 leukemia = system: K-562 leukemia
EKVX NSCLC = system: EKVX NSCLC
COLO 205 colon = system: COLO 205 colon
KM12 colon = system: KM12 colon
SF-268 CNS = system: SF-268 CNS
LOX IMVI melanoma = system: LOX IMVI melanoma
MOLT-4 leukemia = system: MOLT-4 leukemia
M14 melanoma = system: M14 melanoma
ACHN renal = system: ACHN renal
DU-145 prostate = system: DU-145 prostate
SK-MEL-28 melanoma = system: SK-MEL-28 melanoma
UO-31 renal = system: UO-31 renal
HCC-2998 colon = system: HCC-2998 colon
SK-MEL-2 melanoma = system: SK-MEL-2 melanoma
OVCAR-8 ovarian = system: OVCAR-8 ovarian
NCI-H23 lung = system: NCI-H23 lung
HOP-62 NSCLC = system: HOP-62 NSCLC
A549 NSCLC = system: A549 NSCLC
786-0 renal = system: 786-0 renal
OVCAR-3 ovarian = system: OVCAR-3 ovarian
IGROV1 ovarian = system: IGROV1 ovarian
PC-3 prostate = system: PC-3 prostate
MCF7 breast = system: MCF7 breast
OVCAR-5 ovarian = system: OVCAR-5 ovarian
SF-539 CNS = system: SF-539 CNS
NCI-H460 lung = system: NCI-H460 lung
TK-10 renal = system: TK-10 renal
SF-295 CNS = system: SF-295 CNS
U251 CNS = system: U251 CNS
SN12C renal = system: SN12C renal
OVCAR-4 ovarian = system: OVCAR-4 ovarian
MDA-MB-435 = system: MDA-MB-435
HT29 colon = system: HT29 colon
RPMI-8226 leukemia = system: RPMI-8226 leukemia
HCT-116 colon = system: HCT-116 colon
A498 renal = system: A498 renal
CCRF-CEM leukemia = system: CCRF-CEM leukemia
T-47D breast = system: T-47D breast
UACC-257 melanoma = system: UACC-257 melanoma
NCI-H226 lung = system: NCI-H226 lung
SNB-19 CNS = system: SNB-19 CNS
SNB-75 CNS = system: SNB-75 CNS

**Q.** Which results are given for `CC(=C(c1ccc(OCCN(C)C)cc1)c1ccc(OCCN(C)C)cc1)c1ccc(Cl)cc1`?
**A.** GI50 (HOP-92 NSCLC): 740 nM; TGI (HOP-92 NSCLC): 3040 nM; GI50 (HL-60(TB) leukemia): 708 nM; TGI (HL-60(TB) leukemia): 1640 nM; GI50 (HCT-15 colon): 625 nM; TGI (HCT-15 colon): 1360 nM; GI50 (SR leukemia): 638 nM; TGI (SR leukemia): 3290 nM; GI50 (CAKI-1 renal): 652 nM; TGI (CAKI-1 renal): 1690 nM; GI50 (BT-549 breast): 3170 nM; TGI (BT-549 breast): 7780 nM; GI50 (MALME-3M melanoma): 570 nM; TGI (MALME-3M melanoma): 1080 nM; GI50 (SW-620 colon): 569 nM; TGI (SW-620 colon): 1170 nM; GI50 (SK-OV-3 ovarian): 4800 nM; TGI (SK-OV-3 ovarian): 9530 nM; GI50 (SK-MEL-5 melanoma): 597 nM; TGI (SK-MEL-5 melanoma): 1090 nM; GI50 (NCI/ADR-RES ovarian): 951 nM; TGI (NCI/ADR-RES ovarian): 2950 nM; GI50 (HS 578T breast): 1370 nM; TGI (HS 578T breast): 5140 nM; GI50 (NCI-H522 lung): 756 nM; TGI (NCI-H522 lung): 2100 nM; GI50 (MDA-MB-231 breast): 687 nM; TGI (MDA-MB-231 breast): 1560 nM; GI50 (RXF 393 renal): 706 nM; TGI (RXF 393 renal): 2080 nM; GI50 (UACC-62 melanoma): 576 nM; TGI (UACC-62 melanoma): 1130 nM; GI50 (K-562 leukemia): 770 nM; TGI (K-562 leukemia): 7710 nM; GI50 (EKVX NSCLC): 1660 nM; TGI (EKVX NSCLC): 6110 nM; GI50 (COLO 205 colon): 621 nM; TGI (COLO 205 colon): 1270 nM; GI50 (KM12 colon): 1450 nM; TGI (KM12 colon): 3560 nM; GI50 (SF-268 CNS): 1600 nM; TGI (SF-268 CNS): 6210 nM; GI50 (LOX IMVI melanoma): 542 nM; TGI (LOX IMVI melanoma): 1030 nM; GI50 (MOLT-4 leukemia): 713 nM; TGI (MOLT-4 leukemia): 1810 nM; GI50 (M14 melanoma): 614 nM; TGI (M14 melanoma): 1240 nM; GI50 (ACHN renal): 709 nM; TGI (ACHN renal): 1570 nM; GI50 (DU-145 prostate): 1380 nM; TGI (DU-145 prostate): 4900 nM; GI50 (SK-MEL-28 melanoma): 605 nM; TGI (SK-MEL-28 melanoma): 1130 nM; GI50 (UO-31 renal): 847 nM; TGI (UO-31 renal): 2650 nM; GI50 (HCC-2998 colon): 617 nM; TGI (HCC-2998 colon): 1310 nM; GI50 (SK-MEL-2 melanoma): 2100 nM; TGI (SK-MEL-2 melanoma): 4820 nM; GI50 (OVCAR-8 ovarian): 1170 nM; TGI (OVCAR-8 ovarian): 4360 nM; GI50 (NCI-H23 lung): 2600 nM; TGI (NCI-H23 lung): 7170 nM; GI50 (HOP-62 NSCLC): 3300 nM; TGI (HOP-62 NSCLC): 8160 nM; GI50 (A549 NSCLC): 1040 nM; TGI (A549 NSCLC): 4140 nM; GI50 (786-0 renal): 591 nM; TGI (786-0 renal): 1160 nM; GI50 (OVCAR-3 ovarian): 756 nM; TGI (OVCAR-3 ovarian): 2010 nM; GI50 (IGROV1 ovarian): 826 nM; TGI (IGROV1 ovarian): 2220 nM; GI50 (PC-3 prostate): 932 nM; TGI (PC-3 prostate): 3260 nM; GI50 (MCF7 breast): 508 nM; TGI (MCF7 breast): 1020 nM; GI50 (OVCAR-5 ovarian): 1340 nM; TGI (OVCAR-5 ovarian): 5260 nM; GI50 (SF-539 CNS): 566 nM; TGI (SF-539 CNS): 1100 nM; GI50 (NCI-H460 lung): 756 nM; TGI (NCI-H460 lung): 1760 nM; GI50 (TK-10 renal): 4770 nM; TGI (TK-10 renal): 9680 nM; GI50 (SF-295 CNS): 653 nM; TGI (SF-295 CNS): 1380 nM; GI50 (U251 CNS): 631 nM; TGI (U251 CNS): 1460 nM; GI50 (SN12C renal): 1920 nM; TGI (SN12C renal): 5740 nM; GI50 (OVCAR-4 ovarian): 1010 nM; TGI (OVCAR-4 ovarian): 3100 nM; GI50 (MDA-MB-435): 577 nM; TGI (MDA-MB-435): 1120 nM; GI50 (HT29 colon): 615 nM; TGI (HT29 colon): 1490 nM; GI50 (RPMI-8226 leukemia): 651 nM; TGI (RPMI-8226 leukemia): 1580 nM; GI50 (HCT-116 colon): 544 nM; TGI (HCT-116 colon): 1110 nM; GI50 (A498 renal): 3200 nM; TGI (A498 renal): 7810 nM; GI50 (CCRF-CEM leukemia): 657 nM; TGI (CCRF-CEM leukemia): 1840 nM; GI50 (T-47D breast): 633 nM; TGI (T-47D breast): 1410 nM; GI50 (UACC-257 melanoma): 632 nM; TGI (UACC-257 melanoma): 1270 nM; GI50 (NCI-H226 lung): 4440 nM; TGI (NCI-H226 lung): 10000 nM; GI50 (SNB-19 CNS): 1160 nM; TGI (SNB-19 CNS): 4360 nM; GI50 (SNB-75 CNS): 2580 nM; TGI (SNB-75 CNS): 7600 nM
